Assay results reported in patent publication US20250179103A1, “6-OXODECAHYDROPYRROLO[1,2-A][1,5]DIAZOCINE AND 6-OXODECAHYDRO-4H-PYRROLO[2,1-D][1,5]THIAZOCINE DERIVATIVES AS STAT3 AND STAT6 MODULATORS FOR THE TREATMENT OF CANCER AND INFLAMMATORY CONDITIONS” (Recludix Pharma, Inc., priority 2022, published 2025).

Tests used:
[1] = target: T1, Recombinant STAT3 protein (STAT3(G127-I722)) (Homo sapiens, UniProt P40763); test: STAT3 Fluorescence Polarization (FP) Assay; type: binding; details: STAT3(G127-I722) 25 nM, probe 5-FAM-GpYLPQTV-NH2 2 nM, 45-minute incubation
T1 construct: Recombinant STAT3 protein (STAT3(G127-I722))
Outline: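 STAT3(G127-I722), 25 nM, was mixed with 2 nM 5-FAM-GpYLPQTV-NH2 probe in HEPES pH 7.4 buffer with 1% DMSO and serially diluted compound. FP (mP) was read after 45 min at room temperature. IC50 came from nonlinear regression.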

[2] = target: T2, Recombinant STAT6 protein (STAT6(W123-T658)) (Homo sapiens, UniProt P42226); test: STAT6 Fluorescence Polarization (FP) Assay; type: binding; details: STAT6(W123-T658) 250 nM, probe 5-FAM-ApYKPFQDLI-NH2 2 nM, 45-minute incubation
T2 construct: Recombinant STAT6 protein (STAT6(W123-T658))
T2 sequence (P42226 123-658): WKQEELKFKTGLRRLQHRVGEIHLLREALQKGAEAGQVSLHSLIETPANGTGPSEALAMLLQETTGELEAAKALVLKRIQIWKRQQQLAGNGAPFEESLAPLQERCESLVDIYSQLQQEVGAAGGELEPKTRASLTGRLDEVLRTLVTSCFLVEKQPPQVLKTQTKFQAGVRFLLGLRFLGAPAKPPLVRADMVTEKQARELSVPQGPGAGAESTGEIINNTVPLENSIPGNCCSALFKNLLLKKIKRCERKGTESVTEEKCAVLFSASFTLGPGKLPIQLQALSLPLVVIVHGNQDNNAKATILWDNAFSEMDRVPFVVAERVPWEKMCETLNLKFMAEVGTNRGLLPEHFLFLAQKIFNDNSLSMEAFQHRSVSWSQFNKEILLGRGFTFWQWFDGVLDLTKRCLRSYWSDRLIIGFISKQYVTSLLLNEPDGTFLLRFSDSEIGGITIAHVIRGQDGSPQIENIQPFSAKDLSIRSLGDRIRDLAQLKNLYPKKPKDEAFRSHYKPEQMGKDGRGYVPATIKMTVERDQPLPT
Outline: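 Displacement of a fluorescent phosphotyrosine peptide (5-FAM-ApYKPFQDLI-NH2, 2 nM) from STAT6(W123-T658) (250 nM), 1% DMSO, pH 7.4 HEPES buffer. After 45 min at room temperature, polarization (mP) was plotted versus log compound concentration and fitted by nonlinear regression to give IC50.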

T1 sequence (P40763 127-722): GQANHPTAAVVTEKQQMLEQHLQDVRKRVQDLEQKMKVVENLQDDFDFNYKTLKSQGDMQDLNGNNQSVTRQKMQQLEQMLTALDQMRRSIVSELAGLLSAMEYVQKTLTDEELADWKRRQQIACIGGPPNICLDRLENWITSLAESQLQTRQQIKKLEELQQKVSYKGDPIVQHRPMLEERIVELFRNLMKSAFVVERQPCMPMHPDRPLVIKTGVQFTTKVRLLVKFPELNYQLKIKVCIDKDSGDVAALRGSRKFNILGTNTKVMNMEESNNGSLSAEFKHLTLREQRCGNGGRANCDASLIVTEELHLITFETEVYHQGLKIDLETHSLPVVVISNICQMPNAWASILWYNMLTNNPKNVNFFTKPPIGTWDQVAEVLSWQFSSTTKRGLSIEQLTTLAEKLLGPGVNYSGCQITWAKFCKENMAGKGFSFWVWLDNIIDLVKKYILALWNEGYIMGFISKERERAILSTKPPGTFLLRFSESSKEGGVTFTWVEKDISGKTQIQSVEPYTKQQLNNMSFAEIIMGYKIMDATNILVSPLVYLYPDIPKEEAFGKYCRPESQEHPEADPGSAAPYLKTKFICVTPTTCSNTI

For CC(=O)N1CC[C@H]2CC[C@@H](C(=O)Nc3ccc(-c4ccccc4)cc3)N2C(=O)[C@@H](NC(=O)c2cc3cc(C(F)(F)P(=O)(O)O)c(F)cc3s2)C1 [Compound 46, ((2-(((5S,8S,10aR)-8-([1,1′-biphenyl]-4-ylcarbamoyl)-3-acetyl-6-oxodecahydropyrrolo[1,2-a][1,5]diazocin-5-yl)carbamoyl)-6-fluorobenzo[b]thiophen-5-yl)difluoromethyl)phosphonic acid], which IC50 [1] is on record?
Its IC50 is 1 to 10 µM.

And the IC50 [2]?
The IC50 was 0.3 to 3 µM.

Which IC50 [1] does the source give for CC(=O)N1CC[C@H]2CC[C@@H](C(=O)N3CCC3Cc3ccccc3)N2C(=O)[C@@H](NC(=O)c2cc3cc(C(F)(F)P(=O)(O)O)ccc3[nH]2)C1 (stereo partly drawn) [Compound 104, ((2-(((5S,8S,10aR)-3-acetyl-8-(2-benzylazetidine-1-carbonyl)-6-oxodecahydropyrrolo[1,2-a][1,5]diazocin-5-yl)carbamoyl)-1H-indol-5-yl)difluoromethyl)phosphonic acid] here?
Its IC50 is 1 to 10 µM.

And the IC50 [2]?
Its IC50 is 0.3 to 3 µM.

Which IC50 [1] does the source give for CCC(=O)NCCCN(C)C(=O)[C@@H]1CC[C@@H]2CCN(C(C)=O)C[C@H](NC(=O)c3cc4cc(C(F)(F)P(=O)(O)O)ccc4[nH]3)C(=O)N21 [Compound 28, ((2-(((5S,8S,10aR)-3-acetyl-8-(methyl(3-propionamidopropyl)carbamoyl)-6-oxodecahydropyrrolo[1,2-a][1,5]diazocin-5-yl)carbamoyl)-1H-indol-5-yl)difluoromethyl)phosphonic acid] here?
The IC50 was 1 to 10 µM.

What about the IC50 [2] of the same compound?
The IC50 was 0.3 to 3 µM.

Which IC50 [1] does the source give for CC(=O)N1CC[C@H]2CC[C@@H](C(=O)N(C)C3CCN(S(C)(=O)=O)CC3)N2C(=O)[C@@H](NC(=O)c2cc3cc(C(F)(F)P(=O)(O)O)ccc3s2)C1 [Compound 93, ((2-(((5S,8S,10aR)-3-acetyl-8-(methyl(1-(methylsulfonyl)piperidin-4-yl)carbamoyl)-6-oxodecahydropyrrolo[1,2-a][1,5]diazocin-5-yl)carbamoyl)benzo[b]thiophen-5-yl)difluoromethyl)phosphonic acid] here?
The IC50 was 1 to 10 µM.

And the IC50 [2]?
The IC50 was 0.3 to 3 µM.

For COc1ccc(C2CN(C(=O)[C@@H]3CC[C@@H]4CCN(C(C)=O)C[C@H](NC(=O)c5cc6cc(C(F)(F)P(=O)(O)O)ccc6s5)C(=O)N43)C[C@@H]2C#N)cn1 (relative stereo) [Compound 147, ((2-(((5S,8S,10aR)-3-acetyl-8-((rel-trans)-3-cyano-4-(6-methoxypyridin-3-yl)pyrrolidine-1-carbonyl)-6-oxodecahydropyrrolo[1,2-a][1,5]diazocin-5-yl)carbamoyl)benzo[b]thiophen-5-yl)difluoromethyl)phosphonic acid], which IC50 [1] is on record?
Its IC50 is 0.1 to 1 µM.

And the IC50 [2]?
The IC50 was 0.3 to 3 µM.

For CCC(=O)NCCCN(C)C(=O)[C@@H]1CC[C@@H]2CCN(C(C)=O)C[C@H](NC(=O)c3cc4cc(C(=O)P(=O)(O)O)ccc4[nH]3)C(=O)N21 [Compound 27, (2-(((5S,8S,10aR)-3-acetyl-8-(methyl(3-propionamidopropyl)carbamoyl)-6-oxodecahydropyrrolo[1,2-a][1,5]diazocin-5-yl)carbamoyl)-1H-indole-5-carbonyl)phosphonic acid], which IC50 [1] is on record?
Its IC50 is 1 to 10 µM.

What about the IC50 [2] of the same compound?
The IC50 was 3 to 30 µM.

With CC(=O)N1CC[C@H]2CC[C@@H](C(=O)N(C)c3ccccc3)N2C(=O)[C@@H](NC(=O)c2cc3cc(C(F)(F)P(=O)(O)O)cnc3s2)C1 [Compound 110, ((2-(((5S,8S,10aR)-3-acetyl-8-(methyl(phenyl)carbamoyl)-6-oxodecahydropyrrolo[1,2-a][1,5]diazocin-5-yl)carbamoyl)thieno[2,3-b]pyridin-5-yl)difluoromethyl)phosphonic acid] as the compound, how does the IC50 [1] read?
The IC50 was 1 to 10 µM.

What about the IC50 [2] of the same compound?
Its IC50 is 3 to 30 µM.

What does the source list for C[C@H](C(=O)N1CC[C@H]2CC[C@@H](C(=O)Nc3ccc(-c4ccccc4)cc3)N2C(=O)[C@@H](NC(=O)c2cc3cc(C(F)(F)P(=O)(O)O)ccc3[nH]2)C1)c1ccccc1 [Compound 255, ((2-(((5S,8S,10aR)-8-([1,1′-biphenyl]-4-ylcarbamoyl)-6-oxo-3-((S)-2-phenylpropanoyl)decahydropyrrolo[1,2-a][1,5]diazocin-5-yl)carbamoyl)-1H-indol-5-yl)difluoromethyl)phosphonic acid]?
IC50 [1]: 0.1 to 1 µM; IC50 [2]: 0.3 to 3 µM
